We go through 5 compounds from patent US8420851B2, “Selective TR-β 1 agonist” (Cadila Healthcare Limited, priority 2006, dated 2013).

The target of one data set is T1, TR-β (Homo sapiens, UniProt P10828).
T1 sequence (P10828 1-461): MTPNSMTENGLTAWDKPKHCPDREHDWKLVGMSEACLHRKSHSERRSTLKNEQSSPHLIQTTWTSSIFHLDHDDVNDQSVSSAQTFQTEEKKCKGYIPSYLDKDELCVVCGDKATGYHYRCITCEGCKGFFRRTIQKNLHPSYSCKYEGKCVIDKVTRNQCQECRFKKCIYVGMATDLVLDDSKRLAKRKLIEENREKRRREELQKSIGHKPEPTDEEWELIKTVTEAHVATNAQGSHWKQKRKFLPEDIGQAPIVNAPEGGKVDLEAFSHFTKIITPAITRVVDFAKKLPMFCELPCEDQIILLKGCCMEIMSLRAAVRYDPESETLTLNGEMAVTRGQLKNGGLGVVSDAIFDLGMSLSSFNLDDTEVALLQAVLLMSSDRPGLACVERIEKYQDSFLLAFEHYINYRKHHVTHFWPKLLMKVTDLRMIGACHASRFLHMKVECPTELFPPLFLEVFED
The data set is described as follows: In vitro TR-β activity (in-house protocol). Particulars: read-out: TR-β Fold Induction w.r.t T3(100 nm); for fold induction at 0.001 µM: Conc. 1 nM; for fold induction at 0.01 µM: Conc. 10 nM; for fold induction at 0.1 µM: Conc. 100 nM; for fold induction at 1 µM: Conc. 1000 nM. The class given is cell-based. The method, then:
(§1) Invitro TR-α & TR-β activities were determined as per in-house protocols and the results of representative compounds are provided in tables 1 & 2 below as a proof of the efficacies of the novel class of compounds disclosed above.

A further data set addresses T2, TR-α (Homo sapiens, UniProt P10827).
T2 sequence (P10827 1-410 isoform P10827-2): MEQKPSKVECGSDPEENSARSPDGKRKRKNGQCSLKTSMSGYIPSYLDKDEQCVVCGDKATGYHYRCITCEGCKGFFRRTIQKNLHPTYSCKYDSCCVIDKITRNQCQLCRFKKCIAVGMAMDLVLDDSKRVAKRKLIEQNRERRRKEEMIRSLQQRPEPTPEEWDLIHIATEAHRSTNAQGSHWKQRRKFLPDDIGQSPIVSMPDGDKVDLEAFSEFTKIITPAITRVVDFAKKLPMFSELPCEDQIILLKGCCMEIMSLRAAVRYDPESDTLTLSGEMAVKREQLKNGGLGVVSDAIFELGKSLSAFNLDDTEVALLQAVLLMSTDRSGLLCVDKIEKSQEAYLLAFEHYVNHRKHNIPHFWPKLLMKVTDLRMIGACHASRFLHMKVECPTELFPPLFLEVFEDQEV
As to the kind of experiment: In vitro TR-α activity (in-house protocol). The class given is cell-based. The method, then:
as §1

Regarding `CC(C)NS(=O)(=O)c1cc(Oc2c(Cl)cc(N(CC(=O)O)C(=O)Oc3ccc(O)cc3)cc2Cl)ccc1O` [Example 45, [[3,5-Dichloro-4-(4-hydroxy-3-isopropylsulfamoyl-phenoxy)-phenyl]-(4-hydroxy-phenoxycarbonyl)-amino]-acetic acid], on TR-β, the fold induction at 0.001 µM was 13.5, the fold induction at 0.01 µM stood at 18.7, the fold induction at 0.1 µM came out at 47.1 and the fold induction at 1 µM was found to be 88.9. Further, the “TR-α Fold Induction w.r.t T3(100 nm)” value on TR-α (Conc. 1 nM) is given as 10.48. Also, at TR-α (Conc. 10 nM), the “TR-α Fold Induction w.r.t T3(100 nm)” value was 12.02. Moreover, the “TR-α Fold Induction w.r.t T3(100 nm)” value at TR-α (Conc. 100 nM) was 23.05. In addition, the “TR-α Fold Induction w.r.t T3(100 nm)” value at TR-α (Conc. 1000 nM) came to 50.62.
Turning to `O=C(O)CN(C(=O)Oc1ccc(O)cc1)c1cc(Cl)c(Oc2ccc(O)c(S(=O)(=O)NC3CCC3)c2)c(Cl)c1` [Example 51, [[3,5-Dichloro-4-(3-cyclobutylsulfamoyl-4-hydroxy-phenoxy)-phenyl]-(4-hydroxy-phenoxycarbonyl)-amino]-acetic acid], on TR-β, the fold induction at 0.001 µM came out at 8.68, the fold induction at 0.01 µM stood at 17, the fold induction at 0.1 µM was 54.6 and the fold induction at 1 µM was determined as 102. Further, the “TR-α Fold Induction w.r.t T3(100 nm)” value on TR-α (Conc. 1 nM) amounted to 08.05. Moreover, the “TR-α Fold Induction w.r.t T3(100 nm)” value on TR-α (Conc. 10 nM) worked out at 14.43. On TR-α (Conc. 100 nM), the “TR-α Fold Induction w.r.t T3(100 nm)” value is 32.52. The “TR-α Fold Induction w.r.t T3(100 nm)” value on TR-α (Conc. 1000 nM) is recorded as 83.34.
With `O=C(O)CN(C(=O)Oc1ccc(O)cc1)c1cc(Br)c(Oc2ccc(O)c(S(=O)(=O)NC3CC4CCC3C4)c2)c(Br)c1` (stereo not shown) [Example 53, [{4-[3-(Bicyclo[2.2.1]hept-2-ylsulfamoyl)-4-hydroxy-phenoxy]-3,5-dibromo-phenyl}-(4-hydroxy-phenoxycarbonyl)-amino]-acetic acid], the fold induction at 0.001 µM on TR-β is 11. For the same compound, the fold induction at 0.01 µM on TR-β turned out to be 12.9. Further, the fold induction at 0.1 µM at TR-β was 27. Further, the fold induction at 1 µM on TR-β turned out to be 91.7. Besides, the “TR-α Fold Induction w.r.t T3(100 nm)” value at TR-α (Conc. 1 nM) is recorded as 11.19; on TR-α (Conc. 10 nM), 12.00; on TR-α (Conc. 100 nM) it was 17.15; on TR-α (Conc. 1000 nM), 50.30.
With `O=C(O)CN(C(=O)Oc1ccc(O)cc1)c1cc(Cl)c(Oc2ccc(O)c(S(=O)(=O)N3CCCCC3)c2)c(Cl)c1` [Example 41, [{3,5-Dichloro-4-[4-hydroxy-3-(piperidine-1-sulfonyl)-phenoxy]-phenyl}-(4-hydroxy-phenoxycarbonyl)-amino]-acetic acid], on TR-β, the fold induction at 0.001 µM worked out at 23.3, the fold induction at 0.01 µM stood at 73.5, the fold induction at 0.1 µM turned out to be 90 and the fold induction at 1 µM came out at 67. Also, at TR-α (Conc. 1 nM), the “TR-α Fold Induction w.r.t T3(100 nm)” value is 20.78. The “TR-α Fold Induction w.r.t T3(100 nm)” value on TR-α (Conc. 10 nM) was 56.19. The “TR-α Fold Induction w.r.t T3(100 nm)” value on TR-α (Conc. 100 nM) amounted to 99.00. At TR-α (Conc. 1000 nM), the “TR-α Fold Induction w.r.t T3(100 nm)” value is listed as 78.50.
Consider `O=C(O)CN(CC(=O)O)c1cc(Cl)c(Oc2ccc(O)c(S(=O)(=O)N3CCCCC3)c2)c(Cl)c1` [Example 33, (Carboxymethyl-{3,5-dichloro-4-[4-hydroxy-3-(piperidine-1-sulfonyl)-phenoxy]-phenyl}-amino)-acetic acid], for which, on TR-β, the fold induction at 0.001 µM was determined as 8.63, the fold induction at 0.01 µM was 11.9, the fold induction at 0.1 µM was determined as 26 and the fold induction at 1 µM was 46.8. The “TR-α Fold Induction w.r.t T3(100 nm)” value at TR-α (Conc. 1 nM) is reported as 9.66. In addition, the “TR-α Fold Induction w.r.t T3(100 nm)” value at TR-α (Conc. 10 nM) was found to be 13.90. Also, the “TR-α Fold Induction w.r.t T3(100 nm)” value on TR-α (Conc. 100 nM) came out at 25.46. Also, the “TR-α Fold Induction w.r.t T3(100 nm)” value on TR-α (Conc. 1000 nM) is reported as 46.33.
